For this experiment, the system named is Subject B site (forearm microconduit). Description: Lidocaine applied on forearm microconduit site, anesthetic effect (Example 3). The format is in vivo, human. As to conditions: 3% lidocaine applied on Subject B microconduit site.

Regarding `CCN(CC)CC(=O)Nc1c(C)cccc1C` [lidocaine], the anesthetic effects result was “No discernible anesthetic effects were observed”.

Values taken from patent US7597692B2, “Microscission processes and procedures” (Massachusetts Institute of Technology, priority 2000, dated 2009).
